Measurements as given in article PMC10156783, “Structural basis for catalysis of human choline/ethanolamine phosphotransferase 1” (Nature Communications, 2023).

Experiments:
[1] = target: T1, hCEPT1 (human choline/ethanolamine phosphotransferase 1) (Homo sapiens, UniProt Q9Y6K0); assay: isothermal titration calorimetry; cryo-EM structure of the complex; conditions: read-out: binding affinity
T1 construct: gene CEPT1
T1 sequence (Q9Y6K0 1-416): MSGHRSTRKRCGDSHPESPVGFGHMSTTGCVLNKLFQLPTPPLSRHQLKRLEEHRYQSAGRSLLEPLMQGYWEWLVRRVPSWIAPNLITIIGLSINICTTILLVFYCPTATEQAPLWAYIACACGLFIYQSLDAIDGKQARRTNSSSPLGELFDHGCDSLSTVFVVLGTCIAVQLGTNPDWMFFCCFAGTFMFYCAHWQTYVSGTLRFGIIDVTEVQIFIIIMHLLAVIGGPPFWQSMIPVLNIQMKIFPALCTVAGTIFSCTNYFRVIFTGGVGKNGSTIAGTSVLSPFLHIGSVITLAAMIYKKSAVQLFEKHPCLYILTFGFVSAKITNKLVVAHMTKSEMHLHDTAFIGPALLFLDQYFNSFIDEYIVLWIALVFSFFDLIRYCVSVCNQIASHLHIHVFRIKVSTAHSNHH

[2] = target: T1, hCEPT1 (human choline/ethanolamine phosphotransferase 1); conditions: co-substrate diacylglycerol in cholate/POPC micelles; Mg2+ 20 mM; pH 8.0; 37 °C
[3] = target: the molecule itself; assay: cryo-EM structure; purified CEPT1 at about 15 mg/ml in 25 mM Tris pH 8.0, 150 mM NaCl, 0.005% GDN; alone (3.7 Å) and with 10 mM CDP-choline (3.8 Å); C2 symmetry applied, a similar map with C1

C[N+](C)(C)CCOP(=O)(O)OP(=O)([O-])OC[C@H]1O[C@@H](n2ccc(N)nc2=O)[C@H](O)[C@@H]1O [CDP-choline]
Kd [1]: 46 µM

NCCOP(=O)(O)OP(=O)(O)OC[C@H]1O[C@@H](n2ccc(N)nc2=O)[C@H](O)[C@@H]1O [CDP-ethanolamine]
HPLC assay of CMP release [2]: CMP release was approximately doubled when CDP-choline was used as the substrate compared with CDP-ethanolamine

B1: human choline/ethanolamine phosphotransferase 1 (CEPT1), full length (enzyme, UniProt Q9Y6K0 1-416, looked up)
chain: T1 sequence (Q9Y6K0 1-416)
notes: residues 28-407 modelled in each protomer; Homodimer in the cryo-EM structures; membrane protein in GDN detergent; No removal of the tags is described; also called hCEPT1; CEPT1-A; source: FreeStyle 293-F suspension cells, transiently transfected, purified (anti-FLAG M2 resin, NTA resin, SEC in 0.005% GDN)
stoichiometry N [3]: 2
